The values below are quoted from earlier work in patent publication US20250144120A1, “COMPOSITIONS AND METHODS FOR TREATING SKIN CONDITIONS” (priority 2023, published 2025).

Some results are limits rather than exact numbers.

As to `CCCCCCCCCCCCCCCCCCCCC[N+](C)(C)[Si](O)(O)O.[Cl-]` [Octadecyldimethyltrihydroxysilyl propyl ammonium chloride], the skin irritation entry with skin (guinea pigs) and with skin (rabbits) was “does not irritate” in each case. In addition, the eye irritation entry with eyes (rabbits) was “does not irritate”. Also, the LD50 via ingestion in the data set on animal subjects (ingestion) is on record as above 5000 mg/kg. The LD50 via inhalation in the data set with animal subjects (inhalation) is reported as above 2 mg/L.
